Patent US20160120882A1, “COMPOSITION HAVING A BENEFICIAL EFFECT ON THE CARDIOVASCULAR SYSTEM” (ESSENTIAL IP BV, priority 2013, published 2016)
Where “and” joins values, the source holds several entries; their conditions need not be identical. Identical values can stand only once. Counter-ions that a name gives are not always drawn. Like-named read-outs stand apart in the source and are kept apart here.

Legend:
[1] = lycopene group versus 30% in control group; cited from earlier work
[2] = cited from earlier work
[3] = lycopene from all sources (EFSA, 2008); cited from earlier work
[4] = system: human monocytic THP-1 cells; experiment: uptake of fluorescently labeled oxLDL by PMA-stimulated THP-1 macrophages (foam cell formation model), FACS; format: cell-based; conditions: for effect on the uptake of oxLDL: PMA-stimulated THP-1 cells, FIG. 1; for oxLDL uptake, Average: average of 6 independent measurements; for oxLDL uptake, Average / oxLDL uptake [Median Fluorescence intensity]: VitD3 100 nM, lycopene 0.5 uM, monacolin K 10 uM, control average 12617; for oxLDL uptake [Median Fluorescence intensity]: single measurement (1-6), 24 h pre-treatment, then 10 ug/ml Dil-oxLDL 24 h
Source text: We employed a model for measuring the oxLDL uptake by macrophages, a known and accepted model for determining foam cell formation, which in turn is an accepted measure for plaque formation as well as for the development of atherosclerosis and decreasing vascular health in general. Our experimental data are therefore relevant for determining the beneficial effects of several active ingredients on the cardiovascular system.
More in detail, we stimulated human monocytic THP-1 cells [Tsuchiya S, Yamabe M, Yamaguchi Y, Kobayashi Y, Konno T, Tada K (August 1980). “Establishment and characterization of a human acute monocytic leukemia cell line (THP-1)”. Int. J. Cancer 26 (2): 171-6. doi:10.1002/ijc.2910260208.] with phorbol 12-myristate 13-acetate (PMA) and contacted or pre-treated the cells with a number of active ingredients. After 24 hours of pre-treatment, the cells were contacted with or exposed to fluorescently labeled oxLDL and uptake of oxLDL was determined after 24 hours (see example 1).
THP-1 cells (P7) were plated in a 96-wells suspension culture plate at a density of 1*10̂6 cells/ml whereby 1*10̂5 cells were plated. Cells were cultured in IMDM phenol-red free medium (Invitrogen, Eugene, Oreg., USA) enriched for 10% fetal calf serum (FCS), 100 U/ml penicillin, 100 μg/ml streptomycin and 2 mM L-glutamin. Monocytes were differentiated with 50 ng/ml phorbol 12-myristate 13-acetate (PMA) (Sigma Aldrich, St. Louis, Mo. USA) for 48 h where after medium was replaced. After differentiation, macrophages were cultured in the presence or absence of different compounds for 24h (Table 2). After pre-treatment, cells were exposed to 10 ug/ml Dil-labeled oxidized lipoprotein (oxLDL) (Biotrend Chemikalien GmbH, Cologne, Germany) for another 24h at 37° C. to enable foam cell formation in the absence of presence of the different compounds (FIG. 1). After this, cells were washed with PBS (−/−) (PAA, Pitscataway, N.J., USA) and detached by Lidocaine hydrochloride (4 mg/ml) EDTA (10 mM) solution (Sigma Aldrich, St. Louis, Mo. USA)/(Invitrogen, Eugene, Oreg., USA). Cells were washed two more times with FACS buffer (PBS containing 0.5% BSA and 0.2 mM EDTA) and transferred to a 96 U-shaped plate for FACS analysis. Analysis was performed on the FACS Canto II HTS and 1,1′-dioctadecyl-3,3,3′3′-tetra-methylindocyanide percholorate (Dip-labeled oxLDL uptake was measured in PE-A channel.
Macrophages were exposed to vitamin D3, lycopene and/or monacolin K and the inhibitory effect of oxLDL uptake of these three active ingredients was measured. The inhibitory potentiol of each compound and composition was expressed as the difference between the measurements obtained with and without the compound or composition.

[5] = cited from earlier work; remark: listed apart in the source
[6] = high versus low dietary intake of vitamin K2; cited from earlier work
[7] = per increase in dietary intake of vitamin K2 by 10 microgram; 8 years, 480 cardiovascular events; cited from earlier work
[8] = mouse, in vivo; cited from earlier work
[9] = rat, in vivo; cited from earlier work
[10] = subjects with high blood pressure; cited from earlier work
[11] = various clinical trial data; cited from earlier work
[12] = calculated from the NOAEL in rats; cited from earlier work
[13] = daily intake of Red Yeast Rice containing 10 mg monacolin K; cited from earlier work
[14] = cited from earlier work; remark: listed apart in the source
[15] = cyclosporine 3 mg/kg twice daily; berberine 0.2 g three times a day for three months; cited from earlier work
[16] = molecular target: T1, CYP1A1 (Homo sapiens, UniProt P04798); conditions: in vitro; cited from earlier work
T1 sequence (P04798 1-512): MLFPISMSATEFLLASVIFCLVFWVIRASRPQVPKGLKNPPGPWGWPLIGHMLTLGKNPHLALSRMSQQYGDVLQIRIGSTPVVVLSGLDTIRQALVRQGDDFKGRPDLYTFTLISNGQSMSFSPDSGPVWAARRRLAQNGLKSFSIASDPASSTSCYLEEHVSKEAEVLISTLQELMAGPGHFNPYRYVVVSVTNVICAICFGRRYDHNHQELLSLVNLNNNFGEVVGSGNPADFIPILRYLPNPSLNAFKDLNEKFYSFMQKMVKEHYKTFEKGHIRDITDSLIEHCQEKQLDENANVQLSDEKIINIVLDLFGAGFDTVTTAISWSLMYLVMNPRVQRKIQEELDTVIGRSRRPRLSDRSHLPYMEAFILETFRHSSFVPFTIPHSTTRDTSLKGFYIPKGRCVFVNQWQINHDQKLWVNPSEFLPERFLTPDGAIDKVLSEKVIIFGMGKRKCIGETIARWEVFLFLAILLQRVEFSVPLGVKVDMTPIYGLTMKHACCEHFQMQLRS

[17] = clinical studies; cited from earlier work
[18] = subgroup of trials using lycopene dosages of >=25 mg daily

In the case of CC(C)=CCC/C(C)=C/C=C/C(C)=C/C=C/C(C)=C/C=C/C=C(C)/C=C/C=C(C)/C=C/C=C(\C)CCC=C(C)C [Lycopene], the “incidence of prostate cancer” value [1] is listed as 10%, the “Systolic blood pressure lowering” value ([2]; Table 1 summary range) is listed as 5.6-9.5 mmHg and the “systolic blood pressure reducing effect” value ([2]; meta-analysis of 4 studies) is listed as 5.60 mmHg. For the same compound, the “systolic blood pressure reduction” value ([2]; subgroup of trials with high blood pressure at baseline (SBP >=140 mm Hg)) was 9.35 mmHg, the “acceptable daily intake (ADI)” value [3] was 0.5 mg/kg/day and the “effect on the uptake of oxLDL” value [4] was “slightly inhibited”. The “oxLDL uptake, Average” value [4] was 11405 Median Fluorescence intensity, the “oxLDL uptake [Median Fluorescence intensity]” value [4] was 9832 Median Fluorescence intensity and 11500 Median Fluorescence intensity and 12200 Median Fluorescence intensity and 11900 Median Fluorescence intensity and 11300 Median Fluorescence intensity and 11700 Median Fluorescence intensity and the HDL levels ([5]; meta-analysis of 12 studies) was “remained unchanged”. For the same compound, the LDL cholesterol lowering [5, 18] was “LDL cholesterol lowering of 10%”, the “total serum cholesterol lowering” value [5, 18] was 10% and the LDL cholesterol lowering ([5]; subgroup of trials using lycopene dosages of >=25 mg daily, listed as lycopene) was 10%.
For C=C1CC[C@H](O)C/C1=C/C=C1\CCC[C@]2(C)[C@@H]([C@H](C)CCCC(C)C)CC[C@@H]12 [VitD3, Vitamin D3], the “effect on the uptake of oxLDL” value [4] was “no effect”, the “oxLDL uptake, Average” value [4] was 12300 Median Fluorescence intensity and the “oxLDL uptake [Median Fluorescence intensity]” value [4] was 13100 Median Fluorescence intensity and 13200 Median Fluorescence intensity and 12600 Median Fluorescence intensity and 10900 Median Fluorescence intensity.
In the case of CC(C)=CCC/C(C)=C/CC/C(C)=C/CC/C(C)=C/CC1=C(C)C(=O)c2ccccc2C1=O [vitamin K2, Vitamin K2], the “less calcification of the aorta” value [6] is given as 52%, the less myocardial infarctions [6] is given as 57% and the less overall mortality [6] is given as 26%. For the same compound, the risk reduction [7] was 9%.
For COc1ccc2cc3[n+](cc2c1OC)CCc1cc2c(cc1-3)OCO2 [berberine HCL], the LD50 [8] is given as greater than 29586 mg/kg and the LD50 [9] is given as greater than 15000 mg/kg.
In the case of COC1=C(OC)C(=O)C(C/C=C(\C)CC/C=C(\C)CC/C=C(\C)CC/C=C(\C)CC/C=C(\C)CC/C=C(\C)CC/C=C(\C)CC/C=C(\C)CC/C=C(\C)CCC=C(C)C)=C(C)C1=O [CoQ10, Coenzyme Q10], the “mean decrease in diastolic blood pressure” value [10] is listed as 7-10 mmHg, the “mean decrease in systolic blood pressure” value [10] is listed as 11-17 mmHg and the “observed safety level (OSL)” value [11] is listed as 1200 mg/day/person. For the same compound, the “acceptable daily intake (ADI)” value [12] was 12 mg/kg/day.
In the case of CC[C@H](C)C(=O)O[C@H]1C[C@@H](C)C=C2C=C[C@H](C)[C@H](CC[C@@H]3C[C@@H](O)CC(=O)O3)[C@H]21 [Monacolin K], the LDL cholesterol lowering [13] is given as “LDL cholesterol lowering of 7-25%”, the “lowering of triglyceride blood levels” value [13] is given as “by 10-44%” and the “relative increase of HDL” value [13] is given as “Relative increase of HDL up to 17%”. For the same compound, the “effect on the uptake of oxLDL” value [4] was “no effect”, the “oxLDL uptake, Average” value [4] was 12667 Median Fluorescence intensity and the “oxLDL uptake [Median Fluorescence intensity]” value [4] was 14300 Median Fluorescence intensity and 11900 Median Fluorescence intensity and 11700 Median Fluorescence intensity and 11800 Median Fluorescence intensity and 14400 Median Fluorescence intensity.
In the case of COc1ccc2cc3[n+](cc2c1OC)CCc1cc2c(cc1-3)OCO2 [Berberine], the “reduction of fasting plasma insulin” value ([14]; P<0.001) is given as 28.1%, the “reduction of insulin resistance index” value ([14]; P<0.001) is given as 44.7% and the HBA1c after treatment ([14]; decreased from 8.1%) is given as 7.3%. The “increase of mean cyclosporine A Area under the Curve (AUC)” value [15] was 34.5%, the “effect on CYP1A1” value [16] was “inhibit CYP1A1” and the “reduction of total cholesterol” value [17] was 15-18%.
